Assay results reported in patent US20200276258A1, “PHARMACEUTICAL COMPOSITION FOR CONTROLLING BLOOD SUGAR” (BEIJING HEBABIZ BIOTECHNOLOGY CO., Inc., priority 2017, published 2020).
Where a name gives a salt, the structure may show the parent alone.

Columns and labels:
[1] = tested on: type 2 diabetes rat model (high-fat and high-sugar feed + streptozotocin); test: Combined drug use experiment (HH003B with Empagliflozin): HbA1c in rat model; type: in vivo, Wistar rats; details: model rats
Source text: Wistar rats were bred adaptively for 1 week. The subjects were randomly divided into the normal Control group (10) and the modeling group (60) according to their body weight from the second week. The normal Control group (Control) was fed with basic feed, and the model group was fed with high-fat and high-sugar feed. […] On the 9th weekend, rats fasted overnight, measured FBG and insulin levels, and calculated the insulin index (ISI). The model would be successfully established if the fasting blood glucose (>) was 11.1 mmol/L and the ISI was decreased. The successfully modeled rats were randomly divided into Model group, Metformin hydrochloride group, HH003 group, and HH003B group, with 10 rats in each group. […] Fasting but gave water after the last dose, and then weighted the rats after 12 hours. Detected the content of fasting insulin (Insulin), separated the serum, detected the high-density lipoprotein (HDL), free fatty acid (FFA) and glycosylated hemoglobin (GHB). […] Empagliflozin group was given by gavage 1 mg/kg once a day. […] HbA1c was determined at the end of the experiment.

[2] = tested on: type 2 diabetes rat model (high-fat and high-sugar feed + streptozotocin); test: Pharmacodynamic experiment: biochemical indexes of rat model after 4 weeks of administration; type: in vivo, Wistar rats; details: model rats
Source text: Wistar rats were bred adaptively for 1 week. The subjects were randomly divided into the normal Control group (10) and the modeling group (60) according to their body weight from the second week. The normal Control group (Control) was fed with basic feed, and the model group was fed with high-fat and high-sugar feed. […] On the 9th weekend, rats fasted overnight, measured FBG and insulin levels, and calculated the insulin index (ISI). The model would be successfully established if the fasting blood glucose (>) was 11.1 mmol/L and the ISI was decreased. The successfully modeled rats were randomly divided into Model group, Metformin hydrochloride group, HH003 group, and HH003B group, with 10 rats in each group. […] Fasting but gave water after the last dose, and then weighted the rats after 12 hours. Detected the content of fasting insulin (Insulin), separated the serum, detected the high-density lipoprotein (HDL), free fatty acid (FFA) and glycosylated hemoglobin (GHB).

[3] = 4 weeks, metformin hydrochloride 200 mg/kg daily gavage, HH003/HH003B 30% of feed (about 13 g/d/kg)

SMILES | HbA1c (glycosylated hemoglobin) ([1]; 4 weeks, Empagliflozin 1 mg/kg gavage once a day, HH003B 15% of feed (about 7 g/d/kg), combination both) [mg/dL] | effect on glycosylated hemoglobin, in words ([1]; Empagliflozin 1 mg/kg, HH003B reduced dose (15% of feed)) | effect on HDL level, in words ([2]; 4 weeks of administration) | effect on glycosylated hemoglobin GHB level, in words ([2]; 4 weeks of administration, versus Model and Control groups) | effect on the disease condition of type 2 diabetes, in words ([2]; 4 weeks, HH003/HH003B 30% of feed, metformin hydrochloride 200 mg/kg) | FFA (free fatty acid), serum [2, 3] [mmol/L] | GHB (glycosylated hemoglobin) [2, 3] [mmol/L] | HDL (high-density lipoprotein), serum [2, 3] [mmol/L] | Insulin (fasting insulin) ([2]; 4 weeks, metformin hydrochloride 200 mg/kg daily gavage, HH003/HH003B 30% of feed (about 13 g/d/kg), 12 h fasting, mean ± spread) [uIU/ml]
OC[C@H]1O[C@@H](c2ccc(Cl)c(Cc3ccc(O[C@H]4CCOC4)cc3)c2)[C@H](O)[C@@H](O)[C@@H]1O [Empagliflozin] | 7.01 ± 0.17 | no effect |  |  |  |  |  |  | 
CN(C)C(=N)N=C(N)N [Metformin, metformin hydrochloride] |  |  | significantly increase HDL level | significantly reduce the GHB level of the rats but still significantly higher than that of the normal rats | only improve the disease condition of type 2 diabetes to a certain extent | 0.56 ± 0.03 | 15.07 ± 0.85 | 0.74 ± 0.15 | 31.15 ± 6.28
